Like-named read-outs stand apart in the source and are kept apart here.
How the values were obtained:
[1] = target: T1, human ETB receptor (Homo sapiens, UniProt P24530); test: Binding Test #2: inhibition of 125I-ET-1 binding to ETB receptors (transfected COS7 cell membranes)
T1 construct: expressed in transfected cells; host or cells: COS7 cells
T1 sequence (P24530 27-442): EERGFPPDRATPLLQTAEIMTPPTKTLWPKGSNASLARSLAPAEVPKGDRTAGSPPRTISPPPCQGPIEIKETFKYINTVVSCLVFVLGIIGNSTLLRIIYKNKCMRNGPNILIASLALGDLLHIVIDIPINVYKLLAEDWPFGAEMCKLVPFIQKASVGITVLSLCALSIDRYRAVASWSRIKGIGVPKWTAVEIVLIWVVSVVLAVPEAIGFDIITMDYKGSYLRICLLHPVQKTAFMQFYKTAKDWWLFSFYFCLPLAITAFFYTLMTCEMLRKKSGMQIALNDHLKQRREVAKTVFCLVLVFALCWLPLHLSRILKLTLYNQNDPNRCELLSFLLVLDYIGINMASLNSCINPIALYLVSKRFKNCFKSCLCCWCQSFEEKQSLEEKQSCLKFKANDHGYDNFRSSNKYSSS
In short: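 Competition with 125I-ET-1 for binding to membranes from COS7 cells transfected with human ETB receptor, used at 1 μg/50 μl binding buffer. Membranes prepared in HEPES pH 7.4 with aprotinin, including a DNase/MnCl2 step at 37 °C for 30 min.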

[2] = target: T2, human ETA receptors (Homo sapiens, UniProt P25101); test: Binding Test #1: inhibition of 125I-ET-1 binding to ETA receptors (TE 671 cell membranes); conditions: read-out: ETA
T2 construct: endogenous in cells; host or cells: TE 671 cells (ATCC HTB 139)
T2 sequence (P25101 21-427): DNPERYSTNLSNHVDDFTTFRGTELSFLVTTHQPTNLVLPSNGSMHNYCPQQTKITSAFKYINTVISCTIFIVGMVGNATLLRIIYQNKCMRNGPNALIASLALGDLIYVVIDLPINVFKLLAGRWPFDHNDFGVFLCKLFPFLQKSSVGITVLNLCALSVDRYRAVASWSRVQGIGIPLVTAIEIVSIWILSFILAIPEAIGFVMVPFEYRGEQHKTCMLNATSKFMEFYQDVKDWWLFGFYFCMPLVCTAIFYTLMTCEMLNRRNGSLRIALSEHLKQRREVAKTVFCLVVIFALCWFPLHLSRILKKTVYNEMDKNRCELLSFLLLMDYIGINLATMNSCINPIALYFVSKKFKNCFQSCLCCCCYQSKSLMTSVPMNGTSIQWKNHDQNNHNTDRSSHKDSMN
In short: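 Radioligand competition in triplicate: ¹²⁵I-endothelin-1 displaced by test compound (1 nM–100 μM final) from ETA-bearing TE 671 cell membranes in HEPES pH 7.4 binding buffer with NaCl, MgCl2 and bacitracin. Incubation 16–18 h at 4 °C (or at 24 °C); 80 nM ET-1 defines nonspecific binding; pellet radioactivity gives percent inhibition.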

[3] = Oral half-life and peak plasma levels in rat; assay type: in vivo
Text: As used herein, bioavailability refers to the rate and extent of absorption. Methods for determining bioavailability are well known to those of skill in the art. For example, bioavailability of any of the compounds described herein can be determined empirically by administration of the compound to an animal, followed by taking blood samples over time and measuring the blood concentration of the compound. In vivo half life (t½) is defined as the time it takes for the concentration of the compound in the blood to be reduced by one-half. Estimations of the area under the curve for intravenous administration can be used to estimate the area under the curve for oral administration, yielding bioavailability data. See, e.q., Milo Gibal (1991) Biopharmaceutics and Pharmacology, 4th edition (Lea and Sediger).
Table 4 lists oral half-life, bioavailability, and in vivo activity of selected exemplary compounds. The in vivo activity was measured in a pulmonary hypertension model and is a measure of the activity of the compounds at selected dosages.

[4] = Table 1, † incubation at 24° C., read-out: ETB
[5] = Table 1, † incubation at 24° C.
[6] = Table 2, incubation at 4° C., read-out: ETB
[7] = Table 2, † incubation at 24° C., read-out: ETB
[8] = Table 2, † incubation at 24° C.

Row | Molecule | IC50 [1, 4] [nM] | IC50 [2, 5] [nM] | other results
1 | CC(=O)OCc1c(C)cc(C)c(NC(=O)c2sccc2S(=O)(=O)Nc2onc(C)c2Cl)c1C [N-(4-chloro-3-methyl-5-isoxazolyl)-2-(3-acetoxymethyl-2,4,6-trimethylphenylaminocarbonyl)thiophene-3-sulfonamide] | > 100000 | 0.6 | –
2 | Cc1cc(C)c(NC(=O)c2sccc2S(=O)(=O)Nc2onc(C)c2Cl)c(C)c1C#N [N-(4-chloro-3-methyl-5-isoxazolyl)-2-(3-cyano-2,4,6-trimethylphenylaminocarbonyl)thiophene-3-sulfonamide] | – | – | Peak Plasma Levels ([3]; in vivo): 20 µg/mL; POt½ in Rat ([3]; oral): 3.9 h
3 | Cc1noc(NS(=O)(=O)c2ccsc2C(=O)OCCc2ccc3c(c2)OCO3)c1Cl [N-(4-chloro-3-methyl-5-isoxazolyl)-2-[2-(3,4-methylenedioxyphenyl)ethoxycarbonyl-3-sulfonamide] | 6200 | 230 | –
4 | COc1cc(C#N)c(NC(=O)c2sccc2S(=O)(=O)Nc2onc(C)c2Cl)c(OC)c1OC [N-(4-chloro-3-methyl-5-isoxazolyl)-2-[(2,3,4-trimethoxy-6-cyano)phenylaminocarbonyl]thiophene-3-sulfonamide] | 12500 | 0.169 | –
5 | Cc1ccc(NC(=O)c2c(S(=O)(=O)Nc3onc(C)c3Cl)c3ccccc3n2C)cc1 [N-(4-chloro-3-methyl-5-isoxazolyl)-2-[(4-tolyl)aminocarbonyl]-1-methylindole-3-sulfonamide] | 14700 | 31300 | –
6 | Cc1noc(NS(=O)(=O)c2ccsc2CC2(c3ccc4c(c3)OCO4)OCCO2)c1Cl [N-(4-chloro-3-methyl-5-isoxazolyl)-2-[β,β-(ethylenedioxy)-3,4-(methylenedioxy)phenethyl]thiophene-3-sulfonamide] | 2090 | 128 | –
7 | Cc1noc(NS(=O)(=O)c2ccccc2-c2ccccc2)c1Cl [N-(4-chloro-3-methyl-5-isoxazolyl)-2-biphenylsulfonamide] | – | – | IC50 [1, 6]: ~14000 nM; IC50 ([2]; Table 2, incubation at 4° C.): 1.23 nM
8 | Cc1noc(NS(=O)(=O)c2cccc(-c3ccccc3)c2)c1Cl [N-(4-chloro-3-methyl-5-isoxazolyl)-3-biphenylsulfonamide] | – | – | IC50 [1, 6]: 793 nM; IC50 ([1]; read-out: IC50 for ETB receptors): ~793 nM; IC50 ([2]; Table 2, incubation at 4° C.): > 30 nM
9 | Cc1noc(NS(=O)(=O)c2ccc(-c3ccccc3)cc2)c1Cl [N-(4-chloro-3-methyl-5-isoxazolyl)-4-biphenylsulfonamide] | – | – | IC50 [1, 6]: 290 ± 100 nM; IC50 ([2]; Table 2, incubation at 4° C.): 4930 ± 3000 nM
10 | Cc1onc(NS(=O)(=O)c2ccc(-c3ccccc3)cc2)c1Cl [N-(4-chloro-5-methyl-3-isoxazolyl)-4-biphenylsulfonamide] | – | – | IC50 [1, 6]: 230 ± 10 nM; IC50 [1, 7]: 1290 nM; IC50 ([2]; Table 2, incubation at 4° C.): 3700 nM; IC50 [2, 8]: 18600 nM
11 | N-2-[3,4-(methylenedioxy)phenylacetyl]thiophene-3-sulfonamide | 32500 | 1800 | –
12 | N-(3,4-dimethyl-5-isoxazolyl)-2-(4-tolylacetylphenyl)thiophene-3-sulfonamide | 29200 | 2.7 | –
13 | N-(4-bromo-3-methyl-5-isoxazolyl)-1-[3,4-(methylenedioxy)benzyl]indole-2-sulfonamide | 18600 | 5290 | –
14 | N-(4-bromo-3-methyl-5-isoxazolyl)-2′-methoxyphenyl-4-biphenylsulfonamide | – | – | IC50 [1, 6]: 410 ± 140 nM; IC50 ([2]; Table 2, incubation at 4° C.): 3300 ± 3500 nM
15 | N-(4-bromo-3-methyl-5-isoxazolyl)-3′,4′-methylenedioxyphenyl-4-biphenylsulfonamide | – | – | IC50 [1, 7]: 3000 ± 780 nM; IC50 [2, 8]: 38200 ± 4950 nM
16 | N-(4-bromo-3-methyl-5-isoxazolyl)-3′-methoxyphenyl-4-biphenylsulfonamide | – | – | IC50 [1, 6]: 660 ± 250 nM; IC50 [1, 7]: 2080 ± 230 nM; IC50 ([2]; Table 2, incubation at 4° C.): 4970 ± 3400 nM; IC50 [2, 8]: 163000 ± 7140 nM
17 | N-(4-bromo-3-methyl-5-isoxazolyl)-4′-methoxyphenyl-4-biphenylsulfonamide | – | – | IC50 [1, 6]: 1150 ± 440 nM; IC50 ([2]; Table 2, incubation at 4° C.): 14700 ± 5600 nM; IC50 [2, 8]: 122000 ± 2120 nM
18 | N-(4-bromo-3-methyl-5-isoxazolyl)-4′-methylphenyl-4-biphenylsulfonamide | – | – | IC50 [1, 6]: 46 ± 44 nM; IC50 [1, 7]: 168 ± 3.2 nM; IC50 ([2]; Table 2, incubation at 4° C.): 14500 ± 9600 nM; IC50 [2, 8]: 22200 ± 3770 nM
19 | N-(4-bromo-3-methyl-5-isoxazolyl)-4′-trifluorophenyl-4-biphenylsulfonamide | – | – | IC50 [1, 6]: 83 ± 20 nM; IC50 [1, 7]: 710 ± 430 nM; IC50 ([2]; Table 2, incubation at 4° C.): 5400 ± 300 nM; IC50 [2, 8]: 25900 ± 13700 nM
20 | N-(4-chloro-3-methyl-5-isoxazolyl)-2-[β-(dimethylamino)-3,4-(methylenedioxy)phenethyl]thiophene-3-sulfonamide | ~100000 | 20900 | –
21 | N-(4-chloro-3-methyl-5-isoxazolyl)-2-[β-acetoxy-2-methyl-4,5-(methylenedioxy)styryl]thiophene-3-sulfonamide | 3740 | – | IC50 ([2]; Table 1, incubation at 4° C.): 5.44 nM
22 | N-(4-chloro-3-methyl-5-isoxazolyl)-2-phenylbenzo[b]thiophene sulfonamide | 46800 | 932 | –

More lines, main results first:

Row | IC50 [1, 4] [nM] | IC50 [2, 5] [nM] | Molecule | other results
23 | 61000 | 11 | COc1cc(NC(=O)c2sccc2S(=O)(=O)Nc2onc(C)c2Cl)c(C(N)=O)cc1OC [N-(4-chloro-3-methyl-5-isoxazolyl)-2-(2-carboxamido-4,5-dimethoxyphenylaminocarbonyl)thiophene-3-sulfonamide] | –
24 | > 100000 | 1.5 | Cc1cc(C)c(NC(=O)c2sccc2S(=O)(=O)Nc2onc(C)c2Cl)c(C)c1CC(=O)O [N-(4-chloro-3-methyl-5-isoxazolyl)-2-(3-carboxymethyl-2,4,6-trimethylphenylaminocarbonyl)thiophene-3-sulfonamide] | –
25 | 710 | 12000 | CCc1ccc(-c2ccc(S(=O)(=O)Nc3onc(C)c3Cl)s2)s1 [N-(4-chloro-3-methyl-5-isoxazolyl)-5-(5-ethylthien-2-yl)thiophene-2-sulfonamide] | –
26 | 2390 | ~2000 | COc1ccc2c(S(=O)(=O)Nc3onc(C)c3Cl)c(Cc3ccc4c(c3)OCO4)sc2c1 [N-(4-chloro-3-methyl-5-isoxazolyl)-6-methoxy-2-[3,4-(methylenedioxy)benzyl]benzo[b]thiophene-3-sulfonamide] | –
27 | 34000 | 440 | Cc1noc(NS(=O)(=O)c2ccsc2C(=O)OC2CCCCC2)c1Cl [N-(4-chloro-3-methyl-5-isoxozolyl-2-(cyclohexyloxycarbonyl)thiophene-3-sulfonamide] | –
28 | 364 | 5.5 | Cc1onc(NS(=O)(=O)c2c(Cc3ccc4c(c3)OCO4)sc3ccccc23)c1Cl [N-(4-chloro-5-methyl-3-isoxazolyl)-2-[3,4-(methylenedioxy)benzyl]benzo[b]thiophene-3-sulfonamide] | –
29 | 250 | 15800 | N-(4-bromo-5-methyl-3-isoxazolyl)-5-(4-methylphenyl)thiophene-2-sulfonamide | IC50 ([1]; Table 1, incubation at 4° C., read-out: ETB): 359 nM; IC50 ([2]; Table 1, incubation at 4° C.): 7100 nM
30 | 8300 | 7.3 | N-(4-chloro-3-methyl-5-isoxazolyl)-2-[2-hyroxyproyl-4,5-(methylenedioxy)phenylaminocarbonyl]thiophene-3-sulfonamide | –
31 | 6490 | 794 | N-(4-chloro-3-methyl-5-isoxazolyl)-2-[2-methyl-4,5-(methylenedioxy)phenylhydroxyimino]thiophene-3-sulfonamide | –
